Literature values in patent publication US20170273925A1 (Cumberland Pharmaceuticals Inc., priority 2014, published 2017).

CC(C)Cc1ccc(C(C)C(=O)O)cc1 (stereo not shown) [ibuprofen, 2-(4-isobutylphenyl) propionic acid]
Solubility in water: very poorly soluble in water
